The source of these data is patent US10913773B2, “Bicyclic peptidyl inhibitor of tumor necrosis factor-alpha” (Ohio State Innovation Foundation, priority 2016, dated 2021).

In one experiment the target is T1, TNFα-TNFR1 interaction (Homo sapiens, UniProt P01375).
T1 construct: made in house; host or cells: Escherichia coli (TNFα)
The experiment can be described thus: ELISA inhibition of TNFα-TNFR1 interaction (immobilized biotinylated TNFα, TNFR1-HRP). Type of experiment: binding. As for the experimental part: Inhibition of TNFα-TNRF1 interaction by ELISA was carried out as previously described (Lian, W.; et al., supra).
Because of its high-throughput capability, FA analysis had been used to generate all of the SAR data described above. […] To confirm the SAR data obtained by FA analysis, some of the compounds in Table 5 (as well as new compounds) were resynthesized without the Lys(FITC) label and employed a more sensitive ELISA-based assay to determine the IC50 values for inhibition of the TNFα-TNFR1 interaction. Briefly, biotinylated TNFα was immobilized onto a NeutrAvidin-coated surface. TNFR1 conjugated with horseradish peroxidase (HRP) (0.5 nM) was added along with different concentrations of a peptide inhibitor. After washing, the amount of bound TNFR1-HRP was quantitated by ELISA. […] In agreement with the FA results, either extension at the C-terminus of β-Ala with another amino acid (C1-67 to C1-70) or side-chain modification of β-Ala (C1-71 to C1-73) decreased TNFα binding.
Background: ELISA stands for enzyme-linked immunosorbent assay.

The next experiment has as its target T2, TNFα (Homo sapiens, UniProt P01375).
T2 construct: ybbR tag (13 aa) (N); made in house; host or cells: Escherichia coli
In words: Fluorescence anisotropy (FA) binding of fluorescently labeled bicyclic peptides to TNFα. On the procedure:
FITC-labeled bicyclic peptide (50 or 100 nM) were incubated with varying concentrations of TNFα (0-5 μM) in 30 mM HEPES, pH 7.4, 150 mM NaCl, and 2 mM magnesium acetate for 2 h. The FA values were measured on a Molecular Devices Spectramax M5 spectrofluorimeter, with excitation and emission wavelengths at 485 and 525 nm, respectively. Equilibrium dissociation constants (KD) were determined by plotting the FA values as a function of TNFα concentration and fitting the data to the following equation
[formula] where Y is the measured anisotropy at a given TNFα concentration x; L is the bicyclic peptide concentration; Qb/Qf is the correction fact for dye-protein interaction; Amax is the maximum anisotropy when all the peptides are bound to TNFα, while Amin is the minimum anisotropy. Competition experiments were performed by incubating 100 nM Asn-Asn-Asn-Lys(FITC)-labeled anticachexin C1 (Table 1), 2 μM of TNFα, and varying concentrations of unlabeled competitor peptide (0-20 μM) in the above buffer for 2 h. The FA values were plotted against the competitor peptide concentration to determine the IC50 values.
To identify residues significant for TNFα binding, each residue of anticachexin C1 (other than D-alanine at position-3, L-lysine at position-4, and L-2,3-diaminopropionic acid (Dap) at position-10) was individually replaced with an alanine (or D-alanine). To facilitate binding analysis by fluorescence anisotropy (FA), a tetrapeptide NNNK (SEQ ID NO: 1) was added to the C-terminus of each bicyclic peptide and the lysine side chain was labeled with fluorescein isothiocyanate (FITC) during solid-phase synthesis (Scheme 1). The three asparagine residues were added to improve the aqueous solubility of the bicyclic peptides. The bicyclic peptide was prepared by first synthesizing the full-length linear sequence on Rink amide resin using standard Fmoc/HBTU chemistry. The side chains of the two internal cyclization residues, L-lysine and Dap, were protected with monomethoxytrityl (Mmt) groups, whereas the C-terminal lysine was protected with an allyloxycarbonyl (Alloc) group. After removal of the N-terminal Fmoc group, a trimesic acid was coupled to the N-terminal amine using HBTU as the coupling agent. Next, the Mmt groups were selectively removed from the Lys and Dap side chains by 2% TFA and the peptide was cyclized by treatment with (benzotriazol-1-yloxy)tripyrrolidinophosphonium hexafluorophosphate (PyBOP). The Alloc group on the C-terminal lysine side chain was removed by treatment with Pd(PPh3)4 and the bicyclic peptide was selectively labeled at the C-terminal lysine by treating the resin with FITC. […] On the other hand, phenylglycine (Phg)-1 and glycine-7 play more minor roles in binding.
On the technique in general: Fluorescence polarisation rises when a labelled molecule tumbles more slowly, as on binding a larger partner.

Experiment [1] has as its target T3, Recombinant TNFα containing an N-terminal 13-aa ybbR tag (human, UniProt P01375 77-233, biotin at the ybbR tag in the ELISA assays).
T3 construct: Expressed in E. coli; Same construct used unlabelled (FA) and biotinylated on NeutrAvidin (ELISA); also called tumor necrosis factor-alpha; human TNFα; not shown: N-terminal 13-aa ybbR tag
The experiment can be described thus: FA. On the procedure: (§1) The FA values were measured on a Molecular Devices Spectramax M5 spectrofluorimeter, with excitation and emission wavelengths at 485 and 525 nm, respectively. Equilibrium dissociation constants (KD) were determined by plotting the FA values as a function of TNFα concentration and fitting the data to the following equation $$Y = \frac{\left(Amin + \left(Amax \times \frac{Q_b}{Q_f} - Amin\right)\left(\frac{(L+x+K_d) - \sqrt{((L+x+K_d)^2 - 4Lx)}}{2L}\right)\right)}{\left(1 + \left(\frac{Q_b}{Q_f} - 1\right)\left(\frac{(L+x+K_d) - \sqrt{((L+x+K_d)^2 - 4Lx)}}{2L}\right)\right)}$$
(§2) where Y is the measured anisotropy at a given TNFα concentration x; L is the bicyclic peptide concentration; Qb/Qf is the correction fact for dye-protein interaction; Amax is the maximum anisotropy when all the peptides are bound to TNFα, while $Amin$ is the minimum anisotropy. […] The FA values were plotted against the competitor peptide concentration to determine the IC$50$ values.

Experiment [2] concerns the target T3, Recombinant TNFα containing an …. In words: FA, FITC-peptide + TNFα titration. On the procedure: as §1, §2
Experiment [3] has the same target. In words: FA, FITC-peptide + TNFα titration. On the procedure:
as §1, §2
The source holds these as a separate data set.

[4] abbreviates: Table 5, peptides without Lys(FITC) label.
[5] abbreviates: inhibition of TNFα-TNFR1 interaction, unlabeled peptides.

Where two headings read alike, the source gives them in different places. Starred links: 1 amine or outer side, 2 acyl side, 3 side chain; linkers in the order of their positions; H or OH if unused. Positions of bridges follow the written chain, without caps; N, C: chain ends. Non-standard residues stand in square brackets, D forms with d. Residues, ends and D or L forms follow the SMILES beside them. Primed or numbered codes have the meaning given here. *: point of attachment. FITC = O=C1OC2(c3ccc(O)cc3Oc3cc(O)ccc32)c2ccc(NC(=S)*)cc21; Trimesoyl = O=C(c1cc(C(=O)[*:2])cc(C(=O)[*:3])c1)[*:1]; NH(1S,2S-2-CONH2-cPent) = NC(=O)[C@H]1CCC[C@@H]1N*; trimesoyl″ = benzene-1,3,5-tricarbonyl scaffold; FITC′ = fluorescein isothiocyanate, on Lys NZ; β3hV = CC(C)[C@H](N)CC(=O)O; 3Abz = Nc1cccc(C(=O)O)c1; Nle = CCCC[C@H](N)C(=O)O; Dap = NC[C@H](N)C(=O)O; βAla = NCCC(=O)O

T3 sequence (P01375 77-233): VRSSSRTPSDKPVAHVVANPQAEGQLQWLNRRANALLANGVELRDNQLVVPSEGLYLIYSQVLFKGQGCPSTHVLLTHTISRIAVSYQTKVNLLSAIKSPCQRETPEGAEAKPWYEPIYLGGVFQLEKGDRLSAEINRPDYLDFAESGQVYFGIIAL

For orientation: IC50 means the concentration at which inhibition is half-maximal. For `CCCC[C@@H]1NC(=O)c2cc3cc(c2)C(=O)NC[C@@H](C(=O)Nc2cccc(C(N)=O)c2)NC(=O)[C@H](Cc2c[nH]cn2)NC(=O)[C@@H](CCCCN)NC(=O)CNC(=O)[C@@H](Cc2c[nH]cn2)NC(=O)[C@H](Cc2c[nH]c4ccccc24)NC(=O)[C@H](CCCCNC3=O)NC(=O)[C@@H](CO)NC(=O)[C@H](Cc2ccc(O)cc2)NC1=O` [Compound C1-73] ([Nle]Y[dS]KW[dH]G[dK]H[Dap][3Abz]-NH2; linker N-4-10 via Trimesoyl), half-maximal inhibition on TNFα-TNFR1 interaction (setting [4]) (IC50) was put at 1700 ± 700 nM.

The Kd is the constant that tells how readily two partners part at equilibrium. `CCCC[C@@H]1NC(=O)c2cc3cc(c2)C(=O)NC[C@@H](C(=O)N[C@H]2CCC[C@@H]2C(=O)NCCOCCOCC(=O)N[C@@H](CCCCNC(=S)Nc2ccc4c(c2)C(=O)OC42c4ccc(O)cc4Oc4cc(O)ccc42)C(N)=O)NC(=O)[C@H](Cc2c[nH]cn2)NC(=O)[C@@H](CCCCN)NC(=O)CNC(=O)[C@@H](Cc2c[nH]cn2)NC(=O)[C@H](Cc2c[nH]c4ccccc24)NC(=O)[C@H](CCCCNC3=O)NC(=O)[C@@H](CO)NC(=O)[C@H](Cc2ccc(O)cc2)NC1=O` [Compound C1-63] had a Kd at TNFα (Table 5, residue 11 variants with Lys(FITC)) of 160 ± 150 nM.

For `CCCC[C@@H]1NC(=O)c2cc3cc(c2)C(=O)NC[C@@H](C(=O)N[C@@H](CCCCNC(=S)Nc2ccc4c(c2)C(=O)OC42c4ccc(O)cc4Oc4cc(O)ccc42)C(N)=O)NC(=O)[C@H](Cc2c[nH]cn2)NC(=O)[C@@H](CCCCN)NC(=O)CNC(=O)[C@@H](Cc2ccccc2)NC(=O)[C@H](Cc2ccc(O)cc2)NC(=O)[C@H](CCCCNC3=O)NC(=O)[C@@H](C)NC(=O)[C@H](Cc2ccc(O)cc2)NC1=O` [Compound C1-5], the “Increase of TNFα binding affinity (fold)” value on TNFα (relative to comparator analogue named in text) is roughly 2 fold.

Turning to `CC(=O)C[C@H](CCc1ccccc1)NC(=O)[C@@H](CC(N)=O)NC(=O)C(N)Cc1ccccc1F` (stereo partly drawn) [Compound C1-74-4], the IC50 against TNFα-TNFR1 interaction (setting [5]) was determined as 30 nM. For the same molecule, at TNFα-TNFR1 interaction (relative to C1-74), the “Improvement of IC50 over C1-74 (fold)” value was roughly 2 fold.

With `CCCC[C@@H]1NC(=O)c2cc3cc(c2)C(=O)NC[C@@H](C(=O)NCCC(=O)NCCC(N)=O)NC(=O)[C@H](Cc2c[nH]cn2)NC(=O)[C@@H](CCCCN)NC(=O)CNC(=O)[C@@H](Cc2c[nH]cn2)NC(=O)[C@H](Cc2c[nH]c4ccccc24)NC(=O)[C@H](CCCCNC3=O)NC(=O)[C@@H](CO)NC(=O)[C@H](Cc2ccc(O)cc2)NC1=O` [Compound C1-67] ([Nle]Y[dS]KW[dH]G[dK]H[Dap][βAla][βAla]-NH2; linker N-4-10 via Trimesoyl), it took 1500 ± 900 nM to reach half-maximal inhibition at TNFα-TNFR1 interaction (setting [4]) (IC50).

The molecule `CCCC[C@@H]1NC(=O)c2cc3cc(c2)C(=O)NC[C@@H](C(=O)N[C@H](CC(N)=O)C(C)C)NC(=O)[C@H](Cc2c[nH]cn2)NC(=O)[C@@H](CCCCN)NC(=O)CNC(=O)[C@@H](Cc2c[nH]cn2)NC(=O)[C@H](Cc2c[nH]c4ccccc24)NC(=O)[C@H](CCCCNC3=O)NC(=O)[C@@H](CO)NC(=O)[C@H](Cc2ccc(O)cc2)NC1=O` [Compound C1-71] ([Nle]Y[dS]KW[dH]G[dK]H[Dap][β3hV]-NH2; linker N-4-10 via Trimesoyl) showed a half-inhibitory concentration (IC50) against TNFα-TNFR1 interaction (setting [4]) of 2400 ± 1300 nM.

In turn, `CCCC[C@@H]1NC(=O)c2cc3cc(c2)C(=O)NC[C@@H](C(=O)NCCC(N)=O)NC(=O)[C@H](Cc2c[nH]cn2)NC(=O)[C@@H](CCCCN)NC(=O)CNC(=O)[C@@H](Cc2c[nH]cn2)NC(=O)[C@H](Cc2c[nH]c4ccccc24)NC(=O)[C@H](CCCCNC3=O)NC(=O)[C@@H](CO)NC(=O)[C@H](Cc2ccc(O)cc2)NC1=O` [Compound C1-66] ([Nle]Y[dS]KW[dH]G[dK]H[Dap][βAla]-NH2; linker N-4-10 via Trimesoyl) had an IC50 against TNFα-TNFR1 interaction (setting [5]) of 85 nM.

On TNFα-TNFR1 interaction (setting [5]), `CC(=O)[C@@H](Cc1ccc(O)cc1)NC(=O)[C@@H](CC(=O)O)NC(=O)C(N)CC(=O)O` (stereo partly drawn) [Compound C1-74-5] had a concentration for half-maximal inhibition (IC50) of 1350 ± 490 nM. Compared with the last molecule, the IC50 is about 16-fold higher.

With `CCCC[C@@H]1NC(=O)c2cc3cc(c2)C(=O)NC[C@@H](C(=O)NCCC(=O)N[C@H](Cc2ccccc2)C(N)=O)NC(=O)[C@H](Cc2c[nH]cn2)NC(=O)[C@@H](CCCCN)NC(=O)CNC(=O)[C@@H](Cc2c[nH]cn2)NC(=O)[C@H](Cc2c[nH]c4ccccc24)NC(=O)[C@H](CCCCNC3=O)NC(=O)[C@@H](CO)NC(=O)[C@H](Cc2ccc(O)cc2)NC1=O` [Compound C1-70] ([Nle]Y[dS]KW[dH]G[dK]H[Dap][βAla][dF]-NH2; linker N-4-10 via Trimesoyl), the IC50 against TNFα-TNFR1 interaction (setting [4]) is greater than 10000 nM.

As to `CCCC[C@@H]1NC(=O)c2cc3cc(c2)C(=O)NC[C@@H](C(=O)N[C@H]2CCC[C@@H]2C(N)=O)NC(=O)[C@H](Cc2c[nH]cn2)NC(=O)[C@@H](CCCCN)NC(=O)CNC(=O)[C@@H](Cc2c[nH]cn2)NC(=O)[C@H](Cc2c[nH]c4ccccc24)NC(=O)[C@H](CCCCNC3=O)NC(=O)[C@@H](CO)NC(=O)[C@H](Cc2ccc(O)cc2)NC1=O` [Compound C1-72] ([Nle]Y[dS]KW[dH]G[dK]H[Dap]-{NH(1S,2S-2-CONH2-cPent)}; linker N-4-10 via Trimesoyl), the IC50 on TNFα-TNFR1 interaction (setting [4]) was 110 ± 30 nM.

Consider `CCCC[C@@H]1NC(=O)c2cc3cc(c2)C(=O)NC[C@@H](C(=O)NCCC(=O)N[C@@H](Cc2ccccc2)C(N)=O)NC(=O)[C@H](Cc2c[nH]cn2)NC(=O)[C@@H](CCCCN)NC(=O)CNC(=O)[C@@H](Cc2c[nH]cn2)NC(=O)[C@H](Cc2c[nH]c4ccccc24)NC(=O)[C@H](CCCCNC3=O)NC(=O)[C@@H](CO)NC(=O)[C@H](Cc2ccc(O)cc2)NC1=O` [Compound C1-69] ([Nle]Y[dS]KW[dH]G[dK]H[Dap][βAla]F-NH2; linker N-4-10 via Trimesoyl), for which the IC50 on TNFα-TNFR1 interaction (setting [4]) was found to be 1300 ± 1100 nM. This IC50 lies about 12-fold higher than the previous one.

On to [Nle]Y[dS]KY[dF]G[dK]H[Dap]K(FITC′)-NH2 (bridge N-4-10 via trimesoyl″; not fully specified (N-terminus)) [C1-11], for which the “fold reduction in affinity against D-Ala at position-3” value in experiment [1] was roughly 2 fold. Further, the Kd in experiment [2] and in experiment [3] was 1500 nM throughout.

[Nle]Y[dS]KY[dH]G[dK]H[Dap]K(FITC)-NH2 (linker N-4-10 via trimesoyl″) [C1-30]: the “fold improvement in affinity against D-Phe at position-6” value in experiment [1] is roughly 2 fold. Besides, the Kd in experiment [2] and in experiment [3] was 760 nM throughout.
